Measurements published in patent US20180236089A1, “RADIATION EMITTING PEPTIDE NUCLEIC ACID CONJUGATES AND USES THEREOF FOR DIAGNOSIS, IMAGING, AND TREATMENT OF DISEASES, CONDITIONS AND DISORDERS” (Yissum Research Development Company of the Hebrew …, priority 2015, published 2018).
Where “and” joins values, the source holds several entries; their conditions need not be identical. Identical values can stand only once. Where no end group is shown, it is not given here. [ ]: non-standard residue; d: D form. BisQ = dye (BisQ) placed in the PNA in place of a base

Experiments:
Panc-1 cells = experiment: Hybridization and imaging in living cells (confocal microscopy), Panc-1; type: cell-based, human; settings: Panc-1 expressing mutated KRAS, 0.5 μM, 3 hours
Procedure: (§1) Three cell lines were used: Panc-1, BxPC-3 (human pancreatic carcinoma, epithelial-like), and HT-29 (human colon adenocarcinoma grade II). Cell lines were purchased from the American Type Culture Collection (ATCC, Manassas, Va., USA). Panc-1 and HT-29 expressing mutated and wild type KRAS, respectively, were cultured (37° C., 5% CO2), in DMEM medium and supplemented with 10% fetal calf serum, 2 mM L-glutamine, and 0.1 mg/mL Streptomycin (Beit Haemek Biological Industries, Israel). BxPC-3 cells expressing wild type KRAS were cultured in RPMI 1640 medium supplemented with 10% fetal calf serum, 2 mM L-glutamine, and 0.1 mg/mL Streptomycin.
(§2) Twenty four hours prior to PNA addition, Panc-1, HT-29, and BxPC-3 were plated separately on chamber slides (Ibidi GmbH, Munich, Germany) until reaching 70-80% confluence.
(§3) Before adding the PNAs, the medium was replaced and the cells were incubated (37° C., humidified atmosphere containing 5% CO2) with 0.5 μM of PNA1 and PNA2 in complete medium. Cells were washed with PBS (×3) prior to cell imaging and the intracellular fluorescence was measured after 3 hours by confocal microscopy. Design and synthesis of a new surrogate base (BisQ) with the unique feature of far-red emission. BisQ was introduced into PNAs that targets the mutated kRAS oncogene.

[1] = UV-Vis absorption of BisQ, TO and PNA FIT probes, alone or hybridized to DNA; type: physicochemical; settings: for λmaxabs: UV-Vis spectrum, maximal absorption
HT-29 cells = experiment: Hybridization and imaging in living cells (confocal microscopy), HT-29; type: cell-based, human; settings: HT-29 expressing wild type KRAS, 0.5 μM, 3 hours
Procedure: as §1, §2, §3

BxPC-3 cells = experiment: Hybridization and imaging in living cells (confocal microscopy), BxPC-3; type: cell-based, human; settings: BxPC-3 expressing wild type KRAS, 0.5 μM, 3 hours
Procedure: as §1, §2, §3

Molecule	intracellular red fluorescence (Panc-1 cells)	εmax [1]	λmaxabs [1]	intracellular red fluorescence (HT-29 cells)	intracellular red fluorescence (BxPC-3 cells)
(D-Lys)4-CCTCGACT[BisQ]CCGCATCC-NH2 (chain 1 [dK][dK][dK][dK]CCTCGACT-BisQ; numbers in words are those of the source; cysteine pairing not given here; also: PNA (peptide nucleic acid), BisQ joins chain 1 and chain 2 within one strand) [PNA2, BisQ paired with T; PNA FIT probe targeting mutated KRAS]	red emission solely in Panc-1 cells	82,219 M^−1cm^−1	593 nm	red emission solely in Panc-1 cells	red emission solely in Panc-1 cells
CN1C(=Cc2cc[n+](C)c3ccccc23)Sc2ccccc21 [TO, thiazole orange, reference compound]		43,000 M^−1cm^−1	505 nm		
Fmoc-Aeg(Dy)-OH [BisQ]		41,370 M^−1cm^−1	591 nm		
(D-Lys)4-CCTCGA[BisQ]TACCGCATCC-NH2 (chemistry not fully specified) [PNA1, BisQ paired with G; PNA FIT probe targeting mutated KRAS]		83,000 M^−1cm^−1	591 nm and 588 nm		
